Laboratory results reported in patent US10774071B2, “PD-1/PD-L1 inhibitors” (Gilead Sciences, Inc., priority 2018, dated 2020).

Legend:
PD-L1 = PD-L1 (Homo sapiens (Human), UniProt Q9NZQ7); experiment: PD-L1/PD-L1 dimerization biochemical protein-protein interaction assay (ALPHA); type: binding; details: 0.5 nM His tagged PD-L1 and 0.5 nM FLAG tagged PD-L1, Table 4B, read-out: AC50 PDL1 Dimer 1 nM
PD-1/PD-L1 = PD-1/PD-L1 (Homo sapiens (Human), UniProt Q9NZQ7); experiment: PD-1/PD-L1 biochemical protein-protein interaction assay (ALPHA); type: binding; details: 0.3 nM His tagged PD-L1, 2.5 nM biotinylated Fc-PD-1, Table 3B, read-out: IC50 PD-L1-PD1
Sequence of PD-1/PD-L1 (Q9NZQ7 19-238): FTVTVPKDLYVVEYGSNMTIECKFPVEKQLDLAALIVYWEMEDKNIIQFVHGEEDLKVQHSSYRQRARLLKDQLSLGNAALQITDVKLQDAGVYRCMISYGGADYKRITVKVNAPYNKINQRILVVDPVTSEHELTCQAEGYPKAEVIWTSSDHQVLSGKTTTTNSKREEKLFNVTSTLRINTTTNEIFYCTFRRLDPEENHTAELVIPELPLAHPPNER

Sequence of PD-L1 (Q9NZQ7 19-238): as above
Sequence of PD-L1 (Q9NZQ7 19-238): as above

Row | AC50 (PD-L1) [nM] | IC50 (PD-1/PD-L1) [nM] | Compound
1 | 43.7 | 0.064 | COc1cc(O[C@H]2CCc3c(-c4cccc(-c5ccc(CNC[C@@H]6CCC(=O)N6)c(OC)n5)c4Cl)cccc32)c(Cl)cc1CN1CC2(C(=O)O)CCC1CC2 [B-166]
2 | 51.6 | 0.064 | COc1cc(O[C@H]2CCc3c(-c4cccc(-c5ccc(CNC[C@@H]6CCC(=O)N6)c(OC)n5)c4Cl)cccc32)c(Cl)cc1CN1CC[C@H](C(=O)O)C1 [B-167]
3 | 11.8 | 0.064 | COc1nc(-c2cccc(-c3cccc4c3CC[C@@H]4Oc3nc(OC)c(CNC4(C(=O)O)CC4)cc3C(F)(F)F)c2Cl)ccc1CN1CC2(C1)CN(C(C)=O)C2 [B-168]
4 | 11.1 | 0.064 | COc1nc(-c2cccc(-c3cccc4c3CC[C@@H]4Oc3nc(OC)c(CNC4(C(=O)O)CC4)cc3C(F)(F)F)c2Cl)ccc1CN1CC2(CNC(=O)C2)C1 [B-169]
5 | 15.2 | 0.064 | COc1nc(-c2cccc(-c3cccc4c3CC[C@@H]4Oc3nc(OC)c(CNC4(C(=O)O)CC4)cc3C(F)(F)F)c2Cl)ccc1CN1CC2(CCC(=O)N2)C1 [B-170]
6 | 15.2 | 0.064 | COc1nc(-c2cccc(-c3cccc4c3CC[C@@H]4Oc3nc(OC)c(CNC4(C(=O)O)CC4)cc3C(F)(F)F)c2Cl)ccc1CN1CC(C)(O)C1 [B-171]
7 | 9.94 | 0.064 | COc1nc(-c2cccc(-c3cccc4c3CC[C@@H]4Oc3nc(OC)c(CN(C)CC(=O)O)cc3Cl)c2Cl)ccc1CNC[C@@H]1CCC(=O)N1 [B-173]
8 | 7.97 | 0.064 | COc1nc(-c2cccc(-c3cccc4c3CC[C@@H]4Oc3nc(OC)c(CN4CC5CCC4C5C(=O)O)cc3Cl)c2Cl)ccc1CNC[C@@H]1CCC(=O)N1 (stereo partly drawn) [B-174]
9 | 14.3 | 0.064 | COc1nc(-c2cccc(-c3cccc4c3CC[C@@H]4Oc3nc(OC)c(CN4C[C@@H](C)[C@H]4C(=O)O)cc3Cl)c2Cl)ccc1CNC[C@@H]1CCC(=O)N1 [B-175]
10 | 52.6 | 0.064 | COc1nc(-c2cccc(-c3cccc4c3CC[C@@H]4Oc3nc(OC)c(CN4CCCCC(C(=O)O)C4)cc3Cl)c2Cl)ccc1CNC[C@@H]1CCC(=O)N1 (stereo partly drawn) [B-176]
11 | 17.9 | 0.064 | COc1nc(-c2cccc(-c3cccc4c3CC[C@@H]4Oc3nc(OC)c(CN4CCCC(C(=O)O)CC4)cc3Cl)c2Cl)ccc1CNC[C@@H]1CCC(=O)N1 (stereo partly drawn) [B-177]
12 | 21.5 | 0.064 | COc1nc(-c2cccc(-c3cccc4c3CC[C@@H]4Oc3nc(OC)c(CN4CCC(C)(C(=O)O)CC4)cc3Cl)c2Cl)ccc1CNC[C@@H]1CCC(=O)N1 [B-178]
13 | 3.64 | 0.064 | CCN(CC(=O)O)Cc1cc(C(F)(F)F)c(O[C@H]2CCc3c(-c4cccc(-c5cc(F)c(CNC[C@@H]6CCC(=O)N6)c(OC)c5)c4Cl)cccc32)nc1OC [B-179]
14 | 12.5 | 0.064 | COc1nc(-c2cccc(-c3cccc4c3CC[C@@H]4Oc3nc(OC)c(CN4C[C@H]5C[C@]4(C(=O)O)[C@H]5C)cc3Cl)c2Cl)ccc1CNC[C@@H]1CCC(=O)N1 [B-180]
15 | 18.9 | 0.064 | COc1nc(-c2cccc(-c3cccc4c3CC[C@@H]4Oc3nc(OC)c(CN4CC5CCCC4(C(=O)O)C5)cc3Cl)c2Cl)ccc1CNC[C@@H]1CCC(=O)N1 (stereo partly drawn) [B-181]
16 | 31.1 | 0.064 | COc1nc(-c2cccc(-c3cccc4c3CC[C@@H]4Oc3nc(OC)c(CN4C[C@H]5[C@@H]([C@H]4C(=O)O)C5(C)C)cc3Cl)c2Cl)ccc1CNC[C@@H]1CCC(=O)N1 [B-182]
17 | 25.1 | 0.064 | COc1nc(-c2cccc(-c3cccc4c3CC[C@@H]4Oc3nc(OC)c(CN4CCC(C)(C)[C@H]4C(=O)O)cc3Cl)c2Cl)ccc1CNC[C@@H]1CCC(=O)N1 [B-183]
18 | 19.8 | 0.064 | COc1nc(-c2cccc(-c3cccc4c3CC[C@@H]4Oc3nc(OC)c(CN4CC5CC(C(=O)O)C4C5)cc3Cl)c2Cl)ccc1CNC[C@@H]1CCC(=O)N1 (stereo partly drawn) [B-184]
